US9109001B2, “3′,5′-cyclic phosphoramidate prodrugs for HCV infection” (priority 2012, dated 2015)
Where two headings read alike, the source gives them in different places.

Legend:
mouse hepatocytes = experiment: Release of active metabolite in mouse hepatocytes; format: in vitro ADME; settings: 10 μM
Experimental: Assay for the Release of Active Metabolite in Primary Hepatocytes: Plates of fresh human and mouse hepatocytes were obtained on ice. The medium was removed and replaced with hepatocyte culture medium (William's E supplemented with penicillin-streptomycin, 1% L-glutamine, 1% insulin-transferrin-selenium and 0.1 μM Dexamethasone (Invitrogen) or with Invitro GRO HI medium complemented with Torpedo antibiotics (Celsis)). Cells were left overnight in an incubator at 37° C. to acclimatize to culture and the medium.
Hepatocyte incubations were conducted at a final volume of 0.5 mL hepatocyte culture medium/well (0.8 million cells/well for human and 0.5 million cells/well for mouse; 12 well plate no overlay, collagen coat). Culture medium from overnight incubation of cells was removed and replaced with fresh medium, pre-warmed to 37° C., containing 10 μM of test compound from a stock solution in DMSO (final DMSO concentration was 0.1%). At each specific time point, incubation medium was removed and cell monolayers were carefully washed two times with ice-cold PBS. Following the last wash, all PBS was carefully removed and 1.0 mL of extraction solution (ice-cold 70% methanol/30% water) added. Cells were scraped off and suspended in the extraction solution, transferred to 2 mL polypropylene microfuge tubes and intracellular contents extracted overnight at −20° C.
After the overnight treatment the cellular extracts were prepared by centrifugation at 16,000×g for 10 min to remove cellular debris. The remaining sample was then dried using a refrigerated centrivap concentrator. Dry extracts were reconstituted in 1000 μL of HPLC-grade water and centrifuged at 16,000×g for 10 min. Aliquots (100 μL each) of the supernatant were transferred into a 96 well plate and internal standard (4 ng/mL final concentration) was added as the internal standard (IS) for LC-MS/MS analysis.
The incubation time points were 6, 24 and 48 hours for human hepatocytes and 1, 4, 8, 12 and 24 hours for mouse hepatocytes.

HCV genotype 1b replicon = experiment: HCV Replicon Assay; format: cell-based; settings: Zluc (Huh-7-derived) cells, HCV genotype 1b replicon, luciferase reporter, 72 hours, read-out: HCV Replicon EC50
Experimental: Huh-7-derived cell line (Zluc) that harbors an HCV genotype 1b replicon and a luciferase reporter gene was grown in Dulbecco's Modified Eagle Medium (DMEM) supplemented with 10% fetal bovine serum, 2 mM GlutaMAX, 1% MEM nonessential amino acids, 100 IU/mL penicillin, 100 μg/mL streptomycin, and 0.5 mg/mL Geneticin® (G418). For dose response testing the cells were seeded in 96-well plates at 7.5×10^3 cells per well in a volume of 50 μL, and incubated at 37° C./5% CO2. Drug solutions were made up freshly in Huh-7 media as 2× stocks. Ten additional 5-fold dilutions were prepared from these stocks in DMEM without G418. At least three hours after Zluc cells were seeded, drug treatment was initiated by adding 50 μL of drug dilutions to the plates in duplicate. Final concentrations of drug ranged from 100 μM to […]. Cells were then incubated at 37° C./5% CO2. Alternatively, compounds were tested at two concentrations (1 μM and 10 μM). […] For this, media was removed from the plates via gentle tapping. Fifty microliters of ONE-glo luciferase assay reagent was added to each well. The plates were shaken gently for 3 min at room temperature and luminescence was measured on a Victor^3 V 1420 multilabel counter (Perkin Elmer) with a 1 second read time using a 700 nm cut-off filter. The EC50 values were calculated from dose response curves from the resulting best-fit equations determined by Microsoft Excel and XLfit 4.1 software. When screening at two fixed concentrations, the results were expressed as % inhibition at 1 μM and 10 μM.

Stability in mouse blood = format: in vitro ADME; settings: on ice, percent unchanged test compound
Experimental: Stability in Fresh Whole Blood: Stability of test compounds were determined in fresh human whole blood with K2EDTA as the anticoagulant (stored refrigerated at 2-8° C. and used within 7 days of receipt). The experiment was conducted with three replicates for each time point. Whole blood, pre-incubated at 37° C. for 10-15 minutes, was fortified with a solution of test compound for a final concentration of 0.5 μM and mixed for 30 sec. At intervals (0, 0.5, 1 and 2 hr), three 50-μL aliquots were combined with 200 μL (each) of an ice-cold solution of the internal standard (carbutamide 500 ng/mL in acetonitrile). The samples were vortexed for 30 sec and then centrifuged at 16,100 g for 5 min. The supernatant was analyzed by LC-MS/MS. The MS peak area ratio of the test compound versus the internal standard was calculated and percent unchanged test compound was calculated for each time point using this ratio.
The stability in mouse blood was determined on ice at 0, 0.5 and 1 hr as above.

[1] = Stability in human liver microsomes; format: in vitro ADME; settings: 10 μM, 1.0 mg/mL protein, NADPH, 60 min; percent unchanged
Experimental: Stability in Liver and Intestinal Subcellular Fractions: Stability of test compounds were determined in subcellular fractions (microsomes and S9) of human liver and intestine in duplicate for each matrix. Pooled liver and intestinal microsomal, intestinal and liver S9 proteins (1.0 mg/mL), suspended in incubation buffer (100 mM potassium phosphate, pH 7.4, 5 mM MgCl2, and 0.1 mM EDTA), were preincubated for 5 min at 37° C. with 10 μM of a test compound from a 10 mM stock solution in DMSO (final DMSO concentration was 0.1%); the reaction was initiated by the addition of NADPH (3 mM final concentration). At specific times (0 and 60 min), 0.1 mL samples were taken and the reaction terminated by the addition of 4 volumes of stop solution (acetonitrile with 500 ng/mL carbutamide as an internal standard). The samples were vortexed for 30 sec and then centrifuged at 16,000 g for 10 min. 100 μL of supernatants were transferred to 96 deep-well plates preloaded with 100 μL distilled water and analyzed after mixing by LC-MS/MS. The MS peak area ratio of the test compound versus the internal standard was calculated and percent unchanged test compound over 60 minutes was calculated using this ratio.

| Compound | MsH AUC (pmol · hr/mill cells) (mouse hepatocytes) | MsH Cmax (pmol/mill cells) (mouse hepatocytes) | EC50 (HCV genotype 1b replicon; Hepatitis C virus, 72 h) [nM] | Stability WB_Mouse (ice; 1 hr) (Stability in mouse blood) [%] | Stability HLM (1 hr) [1] [%] | EC50 (HCV genotype 1b replicon) [nM] |
| --- | --- | --- | --- | --- | --- | --- |
| CCOc1nc(N)nc2c1ncn2[C@@H]1O[C@@H]2COP(=O)(N[C@@H](C)C(=O)OC(C)C)O[C@H]2[C@@]1(C)F (single isomer, unassigned) [Compound 1 Diastereomer 1] | 4700 | 2296 | 250 to 1000 | 92 | 11 | – |
| CCOc1nc(N)nc2c1ncn2[C@@H]1O[C@@H]2COP(=O)(N[C@@H](C)C(=O)OC(C)C)O[C@H]2[C@@]1(C)F (single isomer, unassigned) [Compound 1 Diastereomer 2] | 1451 | 884 | – | 36 | 52 | < 250 |
